Patent US9109004B2, “Progesterone receptor antagonists” (Bayer Intellectual Property GmbH, priority 2010, dated 2015)

Target: T1, human progesterone receptor A (Homo sapiens, UniProt P06401)
T1 construct: expressed in transfected cells; host or cells: SK-N-MC human neuroblastoma cells, stably transfected
T1 sequence (P06401 1-769 isoform P06401-2): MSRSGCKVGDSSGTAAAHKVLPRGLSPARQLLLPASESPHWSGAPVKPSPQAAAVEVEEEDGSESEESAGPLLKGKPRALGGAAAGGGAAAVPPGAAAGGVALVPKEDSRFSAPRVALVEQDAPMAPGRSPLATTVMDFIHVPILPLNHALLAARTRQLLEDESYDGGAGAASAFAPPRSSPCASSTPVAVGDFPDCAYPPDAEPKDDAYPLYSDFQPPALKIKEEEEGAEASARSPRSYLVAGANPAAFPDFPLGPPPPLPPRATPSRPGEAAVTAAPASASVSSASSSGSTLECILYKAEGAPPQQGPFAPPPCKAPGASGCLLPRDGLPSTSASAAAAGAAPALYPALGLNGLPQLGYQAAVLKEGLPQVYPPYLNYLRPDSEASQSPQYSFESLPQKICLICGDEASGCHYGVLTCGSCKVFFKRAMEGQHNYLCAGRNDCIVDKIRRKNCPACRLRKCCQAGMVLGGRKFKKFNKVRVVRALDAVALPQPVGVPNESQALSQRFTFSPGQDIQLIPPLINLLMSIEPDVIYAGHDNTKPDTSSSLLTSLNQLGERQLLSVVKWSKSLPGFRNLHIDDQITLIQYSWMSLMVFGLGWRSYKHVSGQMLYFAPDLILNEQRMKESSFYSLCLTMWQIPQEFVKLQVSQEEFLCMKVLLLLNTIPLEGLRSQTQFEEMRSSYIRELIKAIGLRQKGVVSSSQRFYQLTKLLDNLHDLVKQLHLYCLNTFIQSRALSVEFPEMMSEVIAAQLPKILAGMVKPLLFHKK
Experiment: Progesterone-receptor-antagonistic action in stably transfected SK-N-MC cells, MTV-LUC reporter (PR-A)
Assay type: cell-based
Conditions: antagonistic potency vs 0.1 nmol/l promegestone, 24 hours, luciferase
Description: Progesterone-Receptor-Antagonistic Action in Stable Transfectants of Human Neuroblastoma Cells (SK-N-MC Cells) with the Human Progesterone A or Progesterone B Receptor and an MTV-LUC Reporter Construct
SK-N-MC cells (human neuroblastoma cells) that have been stably transfected with plasmids that express the human progesterone receptor B (pRChPR-B-neo) or the human progesterone receptor A (pRChPR-A-neo) and a reporter construct (pMMTV-LUC), were incubated for 24 hours either in the absence (negative control) or in the presence of increasing amounts of the particular test compound (0.01 nmol/l, 0.1 nmol/l, 1 nmol/l, 10 nmol/l, 100 nmol/l and 1 μmol/l), to determine the agonistic efficacy. As positive control of reporter gene induction, the cells were treated with the synthetic gestagen promegestone (0.01 nmol/l, 0.1 nmol/l, 1 nmol/l, 10 nmol/l, 100 nmol/l and 1 μmol/l). For determination of the antagonistic activity, the cells were treated with 0.1 nmol/l promegestone and additionally with increasing amounts of the particular test compound (0.01 nmol/l, 0.1 nmol/l, 1 nmol/l, 10 nmol/l, 100 nmol/l and 1 μmol/l). The activity of the reporter gene LUC (LUC=luciferase) was determined in the cell lysates and was measured as RLU (relative light units). All measured values are given as % efficacy and as EC50 or IC50 concentrations.

SMILES	IC50 [nM]
C[C@]12C[C@H](c3ccc(C(=O)Nc4ccccn4)cc3)C3=C4CCC(=O)C=C4CC[C@H]3[C@@H]1CC[C@@]2(O)C(F)(F)C(F)(F)F [Example 11, 4-[(11β,17β)-17-hydroxy-3-oxo-17-(pentafluoroethyl)estra-4,9-dien-11-yl]-N-(pyridin-2-yl)benzamide]	10
C[C@]12C[C@H](c3ccc(C(=O)Nc4cccnc4)cc3)C3=C4CCC(=O)C=C4CC[C@H]3[C@@H]1CC[C@@]2(O)C(F)(F)C(F)(F)F [Example 12, 4-[(11β,17β)-17-hydroxy-3-oxo-17-(pentafluoroethyl)estra-4,9-dien-11-yl]-N-(pyridin-3-yl)benzamide]	1.32
C[C@]12C[C@H](c3ccc(C(=O)NCCCN4CCOCC4)cc3)C3=C4CCC(=O)C=C4CC[C@H]3[C@@H]1CC[C@@]2(O)C(F)(F)C(F)(F)F [Example 13, 4-[(11β,17β)-17-hydroxy-3-oxo-17-(pentafluoroethyl)estra-4,9-dien-11-yl]-N-[3-(morpholin-4-yl)propyl]benzamide]	24
C[C@]12C[C@H](c3ccc(C(=O)Nc4ccncc4)cc3)C3=C4CCC(=O)C=C4CC[C@H]3[C@@H]1CC[C@@]2(O)C(F)(F)C(F)(F)F [Example 14, 4-[(11β,17β)-17-hydroxy-3-oxo-17-(pentafluoroethyl)estra-4,9-dien-11-yl]-N-(pyridin-4-yl)benzamide]	0.42
C[C@]12C[C@H](c3ccc(C(=O)N4CCCC4)cc3)C3=C4CCC(=O)C=C4CC[C@H]3[C@@H]1CC[C@@]2(O)C(F)(F)C(F)(F)F [Example 15, (11β,17β)-17-hydroxy-17-(pentafluoroethyl)-11-[4-(pyrrolidin-1-ylcarbonyl)phenyl]estra-4,9-dien-3-one]	38
C[C@]12C[C@H](c3ccc(C(=O)NCCc4ccccc4)cc3)C3=C4CCC(=O)C=C4CC[C@H]3[C@@H]1CC[C@@]2(O)C(F)(F)C(F)(F)F [Example 16, 4-[(11β,17β)-17-hydroxy-3-oxo-17-(pentafluoroethyl)estra-4,9-dien-11-yl]-N-(2-phenylethyl)benzamide]	0.67
CC(C)(NC(=O)c1ccc([C@H]2C[C@@]3(C)[C@@H](CC[C@@]3(O)C(F)(F)C(F)(F)F)[C@@H]3CCC4=CC(=O)CCC4=C32)cc1)c1ccccc1 [Example 17, 4-[(11β,17β)-17-hydroxy-3-oxo-17-(pentafluoroethyl)estra-4,9-dien-11-yl]-N-(2-phenylpropan-2-yl)benzamide]	0.21
C[C@]12C[C@H](c3ccc(C(=O)NCc4ccc(S(N)(=O)=O)cc4)cc3)C3=C4CCC(=O)C=C4CC[C@H]3[C@@H]1CC[C@@]2(O)C(F)(F)C(F)(F)F [Example 18, 4-[(11β,17β)-17-hydroxy-3-oxo-17-(pentafluoroethyl)estra-4,9-dien-11-yl]-N-(4-sulphamoylbenzyl)benzamide]	4.7
CCNC(=O)c1ccc([C@H]2C[C@@]3(C)[C@@H](CC[C@@]3(O)C(F)(F)C(F)(F)F)[C@@H]3CCC4=CC(=O)CCC4=C32)cc1 [Example 19, N-ethyl-4-[(11β,17β)-17-hydroxy-3-oxo-17-(pentafluoroethyl)estra-4,9-dien-11-yl]benzamide]	1.4
C[C@]12C[C@H](c3ccc(C(=O)NCc4ccccn4)cc3)C3=C4CCC(=O)C=C4CC[C@H]3[C@@H]1CC[C@@]2(O)C(F)(F)C(F)(F)F [Example 20, 4-[(11β,17β)-17-hydroxy-3-oxo-17-(pentafluoroethyl)estra-4,9-dien-11-yl]-N-(pyridin-2-ylmethyl)benzamide]	3.8
C[C@]12C[C@H](c3ccc(C(=O)NCc4ccncc4)cc3)C3=C4CCC(=O)C=C4CC[C@H]3[C@@H]1CC[C@@]2(O)C(F)(F)C(F)(F)F [Example 21, 4-[(11β,17β)-17-hydroxy-3-oxo-17-(pentafluoroethyl)estra-4,9-dien-11-yl]-N-(pyridin-4-ylmethyl)benzamide]	51
C[C@]12C[C@H](c3ccc(C(=O)Nc4ccccc4)cc3)C3=C4CCC(=O)C=C4CC[C@H]3[C@@H]1CC[C@@]2(O)C(F)(F)C(F)(F)F [Example 22, 4-[(11β,17β)-17-hydroxy-3-oxo-17-(pentafluoroethyl)estra-4,9-dien-11-yl]-N-phenylbenzamide]	39
COc1ccccc1NC(=O)c1ccc([C@H]2C[C@@]3(C)[C@@H](CC[C@@]3(O)C(F)(F)C(F)(F)F)[C@@H]3CCC4=CC(=O)CCC4=C32)cc1 [Example 23, 4-[(11β,17β)-17-hydroxy-3-oxo-17-(pentafluoroethyl)estra-4,9-dien-11-yl]-N-(2-methoxyphenyl)benzamide]	86
COc1cccc(NC(=O)c2ccc([C@H]3C[C@@]4(C)[C@@H](CC[C@@]4(O)C(F)(F)C(F)(F)F)[C@@H]4CCC5=CC(=O)CCC5=C43)cc2)c1 [Example 24, 4-[(11β,17β)-17-hydroxy-3-oxo-17-(pentafluoroethyl)estra-4,9-dien-11-yl]-N-(3-methoxyphenyl)benzamide]	3.7
COc1ccc(NC(=O)c2ccc([C@H]3C[C@@]4(C)[C@@H](CC[C@@]4(O)C(F)(F)C(F)(F)F)[C@@H]4CCC5=CC(=O)CCC5=C43)cc2)cc1 [Example 25, 4-[(11β,17β)-17-hydroxy-3-oxo-17-(pentafluoroethyl)estra-4,9-dien-11-yl]-N-(4-methoxyphenyl)benzamide]	11.4
C[C@]12C[C@H](c3ccc(C(=O)Nc4ccc(Cl)cc4)cc3)C3=C4CCC(=O)C=C4CC[C@H]3[C@@H]1CC[C@@]2(O)C(F)(F)C(F)(F)F [Example 26, N-(4-chlorophenyl)-4-[(11β,17β)-17-hydroxy-3-oxo-17-(pentafluoroethyl)estra-4,9-dien-11-yl]benzamide]	28
CCN(CC)C(=O)c1ccc([C@H]2C[C@@]3(C)[C@@H](CC[C@@]3(O)C(F)(F)C(F)(F)F)[C@@H]3CCC4=CC(=O)CCC4=C32)cc1 [Example 27, N,N-diethyl-4-[(11β,17β)-17-hydroxy-3-oxo-17-(pentafluoroethyl)estra-4,9-dien-11-yl]benzamide]	133
CN(C(=O)c1ccc([C@H]2C[C@@]3(C)[C@@H](CC[C@@]3(O)C(F)(F)C(F)(F)F)[C@@H]3CCC4=CC(=O)CCC4=C32)cc1)c1ccccc1 [Example 28, 4-[(11β,17β)-17-hydroxy-3-oxo-17-(pentafluoroethyl)estra-4,9-dien-11-yl]-N-methyl-N-phenylbenzamide]	63
C[C@]12C[C@H](c3ccc(C(=O)N4CCOCC4)cc3)C3=C4CCC(=O)C=C4CC[C@H]3[C@@H]1CC[C@@]2(O)C(F)(F)C(F)(F)F [Example 29, (11β,17β)-17-hydroxy-11-[4-(morpholin-4-ylcarbonyl)phenyl]-17-(pentafluoroethyl)estra-4,9-dien-3-one]	39
C[C@]12C[C@H](c3ccc(C(=O)N4CCN(c5ccccc5)CC4)cc3)C3=C4CCC(=O)C=C4CC[C@H]3[C@@H]1CC[C@@]2(O)C(F)(F)C(F)(F)F [Example 30, (11β,17β)-17-hydroxy-17-(pentafluoroethyl)-11-{4-[(4-phenylpiperazin-1-yl)carbonyl]phenyl}estra-4,9-dien-3-one]	7.2
CN(Cc1ccccn1)C(=O)c1ccc([C@H]2C[C@@]3(C)[C@@H](CC[C@@]3(O)C(F)(F)C(F)(F)F)[C@@H]3CCC4=CC(=O)CCC4=C32)cc1 [Example 31, 4-[(11β,17β)-17-hydroxy-3-oxo-17-(pentafluoroethyl)estra-4,9-dien-11-yl]-N-methyl-N-(pyridin-2-ylmethyl)benzamide]	10.8
CN(Cc1cccnc1)C(=O)c1ccc([C@H]2C[C@@]3(C)[C@@H](CC[C@@]3(O)C(F)(F)C(F)(F)F)[C@@H]3CCC4=CC(=O)CCC4=C32)cc1 [Example 32, 4-[(11β,17β)-17-hydroxy-3-oxo-17-(pentafluoroethyl)estra-4,9-dien-11-yl]-N-methyl-N-(pyridin-3-ylmethyl)benzamide]	375
